# Test results from ChEMBL document CHEMBL3885881, “DrugMatrix”.
# Organism: Rattus norvegicus
# Assay: DrugMatrix - Regimen: Daily Repeat
# Format: toxicity, organism-based, Sprague-Dawley
# Set-up: regimen Daily Repeat, gender Male, age 6-8 weeks
# Settings: in vivo, po, route oral GAVAGE, vehicle .5 % CMC; for ABSOLUTE BASOPHIL / ABSOLUTE EOSINOPHIL / ABSOLUTE LYMPHOCYTE / ABSOLUTE MONOCYTE / ABSOLUTE SEGMENTED NEUTROPHIL / BASOPHIL / EOSINOPHIL / ERYTHROCYTE COUNT / HEMATOCRIT / HEMOGLOBIN / LEUKOCYTE COUNT / LYMPHOCYTE / MEAN CORPUSCULAR HEMOGLOBIN / MEAN CORPUSCULAR HEMOGLOBIN CONCENTRATION / MEAN CORPUSCULAR VOLUME / MONOCYTE / NEUTROPHIL / NUCLEATED RED BLOOD CELLS / PLATELET COUNT: tissue Blood; for ALANINE AMINOTRANSFERASE / ALBUMIN / ALKALINE PHOSPHATASE / ASPARTATE AMINOTRANSFERASE / BLOOD UREA NITROGEN / CARBON DIOXIDE / CHLORIDE / CHOLESTEROL / CREATINE PHOSPHOKINASE / CREATININE / GLUCOSE / LACTATE DEHYDROGENASE / LIPASE / PHOSPHORUS / POTASSIUM / SODIUM / TOTAL BILIRUBIN / TOTAL PROTEIN / URIC ACID: tissue Plasma
# [1] = 0 mg/kg, 72 h, dose level Control, time 3 day
# [2] = 0 mg/kg, 120 h, dose level Control, time 5 day
# [3] = 3 mg/kg, 72 h, dose level Low, time 3 day
compound,measurement,setting,value
COc1nc(C)nc(Cl)c1N=C1NCCN1 [MOXONIDINE],ABSOLUTE BASOPHIL,[1],0 CELLS/uL
same,ABSOLUTE EOSINOPHIL,[1],47.67 CELLS/uL
same,ABSOLUTE LYMPHOCYTE,[1],15937.67 CELLS/uL
same,ABSOLUTE MONOCYTE,[1],138.33 CELLS/uL
same,ABSOLUTE SEGMENTED NEUTROPHIL,[1],1443 CELLS/uL
same,BASOPHIL,[1],0%
same,EOSINOPHIL,[1],0.33%
same,ERYTHROCYTE COUNT,[1],5.45 x10E6/uL
same,HEMATOCRIT,[1],34.43%
same,HEMOGLOBIN,[1],13.38 G/DL
same,LEUKOCYTE COUNT,[1],17.57 x10E3/uL
same,LYMPHOCYTE,[1],90.33%
same,MEAN CORPUSCULAR HEMOGLOBIN,[1],24.6 pg
same,MEAN CORPUSCULAR HEMOGLOBIN CONCENTRATION,[1],38.88 G/DL
same,MEAN CORPUSCULAR VOLUME,[1],63.27 fL
same,MONOCYTE,[1],0.83%
same,NEUTROPHIL,[1],8.5%
same,NUCLEATED RED BLOOD CELLS,[1],0 /100WBC
same,PLATELET COUNT,[1],1298 x10E3/uL
same,ALANINE AMINOTRANSFERASE,[1],47.67 u/L
same,ALBUMIN,[1],4.18 G/DL
same,ALKALINE PHOSPHATASE,[1],398.5 u/L
same,ASPARTATE AMINOTRANSFERASE,[1],93.17 u/L
same,BLOOD UREA NITROGEN,[1],16 mg/dL
same,CARBON DIOXIDE,[1],29.17 mmol/L
same,CHLORIDE,[1],98.17 MEQ/L
same,CHOLESTEROL,[1],68.83 mg/dL
same,CREATINE PHOSPHOKINASE,[1],467.33 u/L
same,CREATININE,[1],0.14 mg/dL
same,GLUCOSE,[1],151.67 mg/dL
same,LACTATE DEHYDROGENASE,[1],597.5 u/L
same,LIPASE,[1],9.33 u/L
same,PHOSPHORUS,[1],11.97 mg/dL
same,POTASSIUM,[1],6.43 MEQ/L
same,SODIUM,[1],140.68 MEQ/L
same,TOTAL BILIRUBIN,[1],0.18 mg/dL
same,TOTAL PROTEIN,[1],5.82 G/DL
same,URIC ACID,[1],1.48 mg/dL
same,ABSOLUTE BASOPHIL,[2],0 CELLS/uL
same,ABSOLUTE EOSINOPHIL,[2],31 CELLS/uL
same,ABSOLUTE LYMPHOCYTE,[2],14327.83 CELLS/uL
same,ABSOLUTE MONOCYTE,[2],102.83 CELLS/uL
same,ABSOLUTE SEGMENTED NEUTROPHIL,[2],1321.67 CELLS/uL
same,BASOPHIL,[2],0%
same,EOSINOPHIL,[2],0.17%
same,ERYTHROCYTE COUNT,[2],5.79 x10E6/uL
same,HEMATOCRIT,[2],36.1%
same,HEMOGLOBIN,[2],14.15 G/DL
same,LEUKOCYTE COUNT,[2],15.78 x10E3/uL
same,LYMPHOCYTE,[2],90.5%
same,MEAN CORPUSCULAR HEMOGLOBIN,[2],24.48 pg
same,MEAN CORPUSCULAR HEMOGLOBIN CONCENTRATION,[2],39.22 G/DL
same,MEAN CORPUSCULAR VOLUME,[2],62.4 fL
same,MONOCYTE,[2],0.67%
same,NEUTROPHIL,[2],8.67%
same,NUCLEATED RED BLOOD CELLS,[2],0.17 /100WBC
same,PLATELET COUNT,[2],1211.67 x10E3/uL
same,ALANINE AMINOTRANSFERASE,[2],49 u/L
same,ALBUMIN,[2],4.27 G/DL
same,ALKALINE PHOSPHATASE,[2],356.67 u/L
same,ASPARTATE AMINOTRANSFERASE,[2],90.17 u/L
same,BLOOD UREA NITROGEN,[2],20.5 mg/dL
same,CARBON DIOXIDE,[2],29.17 mmol/L
same,CHLORIDE,[2],98 MEQ/L
same,CHOLESTEROL,[2],69.83 mg/dL
same,CREATINE PHOSPHOKINASE,[2],312 u/L
same,CREATININE,[2],0.21 mg/dL
same,GLUCOSE,[2],149.83 mg/dL
same,LACTATE DEHYDROGENASE,[2],322 u/L
same,LIPASE,[2],10 u/L
same,PHOSPHORUS,[2],12 mg/dL
same,POTASSIUM,[2],6.75 MEQ/L
same,SODIUM,[2],142.8 MEQ/L
same,TOTAL BILIRUBIN,[2],0.17 mg/dL
same,TOTAL PROTEIN,[2],6.1 G/DL
same,URIC ACID,[2],1.68 mg/dL
same,ABSOLUTE BASOPHIL,[3],0 CELLS/uL
same,ABSOLUTE EOSINOPHIL,[3],88 CELLS/uL
same,ABSOLUTE LYMPHOCYTE,[3],13570 CELLS/uL
same,ABSOLUTE MONOCYTE,[3],44 CELLS/uL
same,ABSOLUTE SEGMENTED NEUTROPHIL,[3],1298 CELLS/uL
same,BASOPHIL,[3],0%
same,EOSINOPHIL,[3],0.67%
same,ERYTHROCYTE COUNT,[3],5.63 x10E6/uL
same,HEMATOCRIT,[3],34.87%
same,HEMOGLOBIN,[3],13.07 G/DL
same,LEUKOCYTE COUNT,[3],15 x10E3/uL
same,LYMPHOCYTE,[3],89.67%
same,MEAN CORPUSCULAR HEMOGLOBIN,[3],23.2 pg
same,MEAN CORPUSCULAR HEMOGLOBIN CONCENTRATION,[3],37.5 G/DL
same,MEAN CORPUSCULAR VOLUME,[3],61.9 fL
same,MONOCYTE,[3],0.33%
same,NEUTROPHIL,[3],9.33%
same,NUCLEATED RED BLOOD CELLS,[3],0 /100WBC
same,PLATELET COUNT,[3],1254.67 x10E3/uL
same,ALANINE AMINOTRANSFERASE,[3],48 u/L
same,ALBUMIN,[3],4 G/DL
same,ALKALINE PHOSPHATASE,[3],327.67 u/L
same,ASPARTATE AMINOTRANSFERASE,[3],95 u/L
same,BLOOD UREA NITROGEN,[3],17 mg/dL
same,CARBON DIOXIDE,[3],29 mmol/L
same,CHLORIDE,[3],99.33 MEQ/L
same,CHOLESTEROL,[3],69.67 mg/dL
same,CREATINE PHOSPHOKINASE,[3],328.67 u/L
same,CREATININE,[3],0.17 mg/dL
same,GLUCOSE,[3],144 mg/dL
same,LACTATE DEHYDROGENASE,[3],269.67 u/L
same,LIPASE,[3],10.33 u/L
same,PHOSPHORUS,[3],12.07 mg/dL
same,POTASSIUM,[3],5.9 MEQ/L
same,SODIUM,[3],142.9 MEQ/L
same,TOTAL BILIRUBIN,[3],0.23 mg/dL
same,TOTAL PROTEIN,[3],5.53 G/DL
same,URIC ACID,[3],1.4 mg/dL
